Assay results published in US12496319B2 (INDUSTRY FOUNDATION OF CHONNAM NATIONAL UNIVERSITY, priority 2020, dated 2025).

Molecular target: T1, NOD2 (Homo sapiens, UniProt Q9HC29)
T1 construct: host or cells: HEK293 / HEK293T cells carrying a NOD2-responsive luciferase reporter
Assay: NOD2 activity by luciferase assay in HEK293 cells
Format: cell-based
Conditions: 10 ng/ml MDP control, 24 hours, untreated = 1.00
Method: Existing literature has reported that the protective effect of lactic acid bacteria on inflammatory bowel disease results from the anti-inflammatory effect of NOD2, which is an innate immune receptor protein. […] Specifically, HEK293 cells were treated with 1 MOI of several types of lactic acid bacteria, which had been transduced to generate luciferase by transcription of the luciferase gene through the stimulation of NOD2. For a control with respect to cell activity, HEK293 cells were treated with 10 ng/ml muramyl dipeptide (MDP) capable of stimulating NOD2 and then cultured in a cell incubator for 24 hours. Thereafter, the NOD2 activity was determined by luciferase assay on the luciferase generated from cell rupture. MDP, which is a component of the peptidoglycan constituting the cell wall of bacteria, is a ligand that directly acts on NOD2, and this was used as a control.

T1 sequence (Q9HC29 whole entry): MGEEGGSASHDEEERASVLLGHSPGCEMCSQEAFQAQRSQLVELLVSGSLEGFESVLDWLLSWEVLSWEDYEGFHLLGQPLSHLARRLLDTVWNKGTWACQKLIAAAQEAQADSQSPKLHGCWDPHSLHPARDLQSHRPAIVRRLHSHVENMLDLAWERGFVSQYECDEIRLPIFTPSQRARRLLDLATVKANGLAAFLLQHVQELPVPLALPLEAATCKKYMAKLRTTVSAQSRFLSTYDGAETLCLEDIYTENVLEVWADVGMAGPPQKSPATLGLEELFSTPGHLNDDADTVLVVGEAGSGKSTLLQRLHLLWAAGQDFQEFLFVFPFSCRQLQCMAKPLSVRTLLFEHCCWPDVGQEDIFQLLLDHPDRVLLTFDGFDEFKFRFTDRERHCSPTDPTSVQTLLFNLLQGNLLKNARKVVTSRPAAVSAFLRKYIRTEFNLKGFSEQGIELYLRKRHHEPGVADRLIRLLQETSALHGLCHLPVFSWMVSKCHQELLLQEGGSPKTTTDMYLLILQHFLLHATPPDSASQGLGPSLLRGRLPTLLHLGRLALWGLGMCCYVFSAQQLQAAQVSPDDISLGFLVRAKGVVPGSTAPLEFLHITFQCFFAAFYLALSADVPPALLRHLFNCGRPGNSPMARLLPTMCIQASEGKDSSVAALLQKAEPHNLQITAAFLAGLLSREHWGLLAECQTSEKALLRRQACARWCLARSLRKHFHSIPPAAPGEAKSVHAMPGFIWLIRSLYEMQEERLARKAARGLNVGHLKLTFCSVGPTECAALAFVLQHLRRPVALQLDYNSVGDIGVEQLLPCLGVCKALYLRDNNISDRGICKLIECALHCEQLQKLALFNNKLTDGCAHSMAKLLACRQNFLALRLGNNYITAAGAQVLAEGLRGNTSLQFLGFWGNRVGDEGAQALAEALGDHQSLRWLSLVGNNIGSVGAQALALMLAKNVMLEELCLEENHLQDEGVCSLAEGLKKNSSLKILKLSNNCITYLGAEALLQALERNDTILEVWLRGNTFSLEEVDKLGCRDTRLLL

NOD2 Activity: 40.70
SMILES: CC(=O)N[C@H]1C(O)O[C@H](CO)[C@@H](O)[C@@H]1O[C@H](C)C(=O)N[C@@H](C)C(=O)N[C@H](CCC(=O)O)C(N)=O (mixture of isomers) [MDP, muramyl dipeptide]
